Experiments:
LRRK2 G2019S = LRRK2 G2019S (Homo sapiens (Human), UniProt Q5S007, G2019S); test: Adapta Kinase Assay (LRRK2_IC50 assay); type: biochemical; conditions: inhibition of LRRK2 G2019S
Protocol: In Adapta™ Kinase Assay (LRRK2_IC50 assay): the Kinase Reaction Buffer contained 5× Kinase Buffer S (Life Technologies, PV5213) and 2 mM DTT (Life Technologies, P2325).
The Adapta® universal kinase assay is a homogenous, fluorescent based immunoassay for the detection of ADP. In contrast to ATP depletion assays, the Adapta® assay is extremely sensitive to ADP formation such that a majority of the signal change occurs in the first 10-20% conversion of ATP to ADP. This makes the Adapta® universal kinase assay ideally suited for use with low activity kinases.
Prepare a 1× solution of kinase reaction buffer from the 5× Kinase Buffer S stock (listed above) by adding 2 ml of 5× stock to 8 ml of H2O to make 10 ml of 1× kinase reaction buffer. To this, add 20 μl of 1 M DTT.
Kinase reactions are performed in a 10 μl volume in low-volume 384-well plates. […] Other non—treated assay plates, while not tested, may also be suitable. The concentration of substrate in the assay is 100 μM, and the 1× kinase reaction buffer consists of 50 mM Tris-HCl pH8.5, 10 mM MgCl2, 1 mM EGTA, 0.01% Brij-35, and 2 mM DTT, plus any additional additives that may be required for a specific kinase. […] The plate is allowed to equilibrate at room temperature for at least 30 minutes before being read on a plate reader configured for Adapta™ TR-FRET.
The data presented in this document were generated using a BMG LABTECH PHERAstar plate reader using the appropriate filters and instrument settings for Adapta™. The Test Compounds are screened in 1% DMSO (final) in the well. For 8 point titrations, 5-fold serial dilutions are conducted from the starting concentration.
(§1) IC50 estimates were obtained using the software XLfit (IDBS Inc.).

JAK2 = JAK2 (Homo sapiens (Human), UniProt O60674); test: LANCE Kinase Assay (JAK2_IC50 selectivity assay); type: biochemical
Chain of JAK2 (O60674 whole entry): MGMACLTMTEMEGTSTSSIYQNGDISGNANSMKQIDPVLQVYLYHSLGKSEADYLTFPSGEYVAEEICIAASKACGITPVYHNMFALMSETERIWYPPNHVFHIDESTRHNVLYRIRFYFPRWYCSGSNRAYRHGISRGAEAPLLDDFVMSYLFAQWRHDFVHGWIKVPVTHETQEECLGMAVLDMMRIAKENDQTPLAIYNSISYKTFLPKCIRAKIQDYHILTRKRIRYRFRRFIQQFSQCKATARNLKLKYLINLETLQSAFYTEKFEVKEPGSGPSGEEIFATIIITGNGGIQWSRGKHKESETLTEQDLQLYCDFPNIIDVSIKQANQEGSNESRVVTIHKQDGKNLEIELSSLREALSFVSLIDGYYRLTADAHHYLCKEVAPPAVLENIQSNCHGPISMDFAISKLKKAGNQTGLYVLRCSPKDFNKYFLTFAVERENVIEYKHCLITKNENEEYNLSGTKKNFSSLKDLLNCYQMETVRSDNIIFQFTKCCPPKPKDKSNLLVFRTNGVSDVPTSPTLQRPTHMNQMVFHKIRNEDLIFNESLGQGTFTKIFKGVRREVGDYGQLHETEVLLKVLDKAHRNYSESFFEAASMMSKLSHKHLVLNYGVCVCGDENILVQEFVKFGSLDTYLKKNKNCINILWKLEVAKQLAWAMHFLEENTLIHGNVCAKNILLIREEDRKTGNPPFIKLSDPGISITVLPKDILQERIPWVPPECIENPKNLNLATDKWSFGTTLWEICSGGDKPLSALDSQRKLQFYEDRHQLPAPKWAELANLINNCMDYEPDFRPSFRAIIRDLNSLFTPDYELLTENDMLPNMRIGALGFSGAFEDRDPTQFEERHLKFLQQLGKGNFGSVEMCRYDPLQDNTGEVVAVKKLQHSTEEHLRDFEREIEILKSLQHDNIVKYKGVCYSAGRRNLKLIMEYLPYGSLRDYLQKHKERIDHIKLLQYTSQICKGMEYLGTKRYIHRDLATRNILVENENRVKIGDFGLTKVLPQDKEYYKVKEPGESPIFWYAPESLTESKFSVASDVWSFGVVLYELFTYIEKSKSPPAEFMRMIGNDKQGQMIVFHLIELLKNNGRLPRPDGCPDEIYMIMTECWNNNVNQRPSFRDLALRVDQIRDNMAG
Source text: In LANCE® Kinase Assay (JAK2_IC50 selectivity assay): JAK2 (Invitrogen, Cat. No PV4288), ATP (Sigma, Cat. No. A7699-1G), DMSO (Sigma, Cat. No. D2650), DTT (Sigma, Cat. No. 43815), LANCE Ultra ULight™-JAK-1 peptide (Perkin Elmer, Cat. No. TRF0121), LANCE Eu-W1024 Anti-phosphotyrosine (PT66) (Perkin Elmer, Cat. No. AD0069), LANCE™ Detection Buffer (Perkin Elmer, Cat. No. CR97-100), Tofacitinib (PharmaBlock Sciences(Nanjing), Inc, Cat. No. PBN2011586-01); Equipments: Envision (Perkin Elmer), Bravo (Agilent); Consumables: 384 well Intermediate plate (Greiner, Cat. No. 781280), 384 well assay plate (Perkin Elmer, Cat. No. 6007299),
The assay involves two steps, the enzymatic step and the detection step with HTRF reagents. Step 1: During the enzymatic step the substrate-biotin is incubated with the kinase of interest. ATP is added to start the reaction. Step 2: The detection reagent catches the phosphorylated substrate and the resulting TR-FRET is proportional to the phosphorylation level.
Compound Preparation: Dissolve the test compounds into 30 mM DMSO solution and put them in nitrogen hood at room temperature for long term storage; Dilute the 30 mM compound in DMSO with 3-fold factor, total 11 concentrations; Aspirate 1 μl compound and then dilute them in 25 folds with kinase buffer. Mix well and balance 30 minutes at room temperature.
Kinase Reaction: Transfer 2.5 μl compounds in kinase buffer (4×) into assay plate by Agilent Bravo. Spin the plate; Transfer 5 μl enzyme mixture into the assay plate by using Eppendorf electronic multi-channel pipette. Spin the plate; Incubate the assay plate for 20 minutes at room temperature (23° C.); Add 2.5 μl kinase buffer with ATP into the assay plate by using Multidrop. Spin and seal the plate; Incubate the assay plate for 90 minutes at room temperature (23° C.).
Stop Reaction: Transfer 10 μl detection reagent (2 nM LANCE Eu-W1024 Anti-phosphotyrosine) into the assay plate by using Eppendorf electronic multi-channel pipette. Spin and seal the plate; Incubate the assay plate at room temperature (23° C.) for 60 minutes.
Detection and Read: The excitation wavelength is 340 nm, the primary emission wavelength is 615 nm and the secondary emission wavelength is 665 nm (for Cryptate and Ulight, respectively). Read the plate with EnVision to get the readout of both wavelengths; Calculate the ratio of 665 nm/615 nm.
as §1

Chain of LRRK2 G2019S (Q5S007 970-2527 G2019S): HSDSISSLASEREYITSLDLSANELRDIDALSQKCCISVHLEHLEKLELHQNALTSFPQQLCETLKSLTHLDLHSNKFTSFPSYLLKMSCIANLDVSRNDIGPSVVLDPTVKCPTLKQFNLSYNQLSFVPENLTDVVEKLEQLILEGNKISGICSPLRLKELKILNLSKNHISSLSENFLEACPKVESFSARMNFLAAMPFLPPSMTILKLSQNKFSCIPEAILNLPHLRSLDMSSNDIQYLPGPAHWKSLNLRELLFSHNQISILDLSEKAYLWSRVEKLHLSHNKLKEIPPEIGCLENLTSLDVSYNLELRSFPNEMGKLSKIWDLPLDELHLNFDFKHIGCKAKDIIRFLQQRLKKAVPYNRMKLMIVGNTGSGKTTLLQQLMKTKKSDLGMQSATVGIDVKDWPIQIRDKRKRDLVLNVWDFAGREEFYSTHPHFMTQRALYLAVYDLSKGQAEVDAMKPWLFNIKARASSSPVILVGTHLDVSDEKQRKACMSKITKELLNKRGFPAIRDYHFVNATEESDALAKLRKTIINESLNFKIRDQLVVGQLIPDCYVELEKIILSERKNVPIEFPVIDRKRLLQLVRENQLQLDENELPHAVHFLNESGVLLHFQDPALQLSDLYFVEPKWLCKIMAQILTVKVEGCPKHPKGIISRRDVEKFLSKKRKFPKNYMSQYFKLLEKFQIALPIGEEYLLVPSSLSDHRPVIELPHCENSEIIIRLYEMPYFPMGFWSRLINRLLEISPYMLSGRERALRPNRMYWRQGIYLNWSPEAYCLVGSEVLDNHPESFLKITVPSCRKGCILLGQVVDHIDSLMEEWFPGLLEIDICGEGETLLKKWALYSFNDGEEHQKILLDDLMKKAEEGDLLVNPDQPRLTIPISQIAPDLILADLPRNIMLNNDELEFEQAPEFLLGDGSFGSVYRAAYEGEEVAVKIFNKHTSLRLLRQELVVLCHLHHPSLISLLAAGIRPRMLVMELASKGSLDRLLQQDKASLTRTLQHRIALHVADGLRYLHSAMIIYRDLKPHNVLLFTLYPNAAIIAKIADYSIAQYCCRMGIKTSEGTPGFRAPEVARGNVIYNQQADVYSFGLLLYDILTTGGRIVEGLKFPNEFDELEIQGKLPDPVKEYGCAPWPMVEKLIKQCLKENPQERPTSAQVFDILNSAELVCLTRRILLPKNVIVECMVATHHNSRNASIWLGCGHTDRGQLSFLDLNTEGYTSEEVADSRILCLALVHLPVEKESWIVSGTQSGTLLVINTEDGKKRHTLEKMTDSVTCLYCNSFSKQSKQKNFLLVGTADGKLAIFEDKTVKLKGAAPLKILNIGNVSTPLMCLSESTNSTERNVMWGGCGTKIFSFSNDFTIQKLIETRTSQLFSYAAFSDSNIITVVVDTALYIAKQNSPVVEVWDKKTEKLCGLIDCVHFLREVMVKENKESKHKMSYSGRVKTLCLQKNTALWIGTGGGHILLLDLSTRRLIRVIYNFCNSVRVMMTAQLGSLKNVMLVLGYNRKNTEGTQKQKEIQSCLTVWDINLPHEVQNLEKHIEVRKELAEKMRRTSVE

Compound | IC50 (LRRK2 G2019S) [nM] | IC50 (JAK2) [nM]
CC1Cc2n[nH]c3ccnc(c23)N(C2CCOCC2)C1 (stereo not drawn) [Example 30, 8-methyl-6-(tetrahydro-2H-pyran-4-yl)-6,7,8,9-tetrahydro-2H-1,2,5,6-tetraazabenzo[cd]azulene] | 250 | 
4-ethyl-4,11-dihydro-5H-3,4,10,11-tetraazadibenzo[cd,h]azulen-5-one [Example 32] | 34 | 
CC(C)N1CCC(N2Cc3nn(C)cc3-c3n[nH]c4ccnc2c34)CC1 [Example 82, 9-(1-isopropylpiperidin-4-yl)-2-methyl-2,5,9,10-tetrahydro-1,2,4,5,8,9-hexaazabenzo[cd]cyclopenta[h]azulene] | 39 | 
4-cyclopropyl-4,11-dihydro-5H-3,4,10,11-tetraazadibenzo[cd,h]azulen-5-one [Example 33] | 30 | 
OCCN1CCCc2n[nH]c3ccnc1c23 [Example 28, 2-(2,7,8,9-tetrahydro-6H-1,2,5,6-tetraazabenzo[cd]azulen-6-yl)ethan-1-ol] | 570 | 
c1ccc(N2Cc3ccccc3-c3n[nH]c4ccnc2c34)cc1 [Example 53] | 33 | 
CC(C)N1CCC(N2Cc3nn(C(C)C)cc3-c3n[nH]c4ccnc2c34)CC1 [Example 88, 2-isopropyl-9-(1-isopropylpiperidin-4-yl)-2,5,9,10-tetrahydro-1,2,4,5,8,9-hexaazabenzo[cd]cyclopenta[h]azulene] | 31 | 5400
4-(tetrahydro-2H-pyran-4-yl)-8-(trifluoromethyl)-5,11-dihydro-4H-3,4,7,10,11-pentaazadibenzo[cd,h]azulene [Example 89] | 49 | 23000
4-isopropyl-5,11-dihydro-4H-3,4,10,11-tetraazadibenzo[cd,h]azulene [Example 48] | 68 | 550
c1ccc2c(c1)CN(C1CCCC1)c1nccc3[nH]nc-2c13 [Example 52] | 33 | 
4-cyclopropyl-5,11-dihydro-4H-3,4,10,11-tetraazadibenzo[cd,h]azulene [Example 47] | 54 | 2200
CN1CCN(C2CCOCC2)c2nccc3[nH]nc1c23 [Example 93, 9-methyl-6-(tetrahydro-2H-pyran-4-yl)-6,7,8,9-tetrahydro-2H-1,2,5,6,9-pentaazabenzo[cd]azulene] | 170 | > 30000
CC(C)N1CCC(N2C(=O)c3ccccc3-c3n[nH]c4ccnc2c34)CC1 [Example 42] | 31 | 
2-(5,11-dihydro-4H-3,4,10,11-tetraazadibenzo[cd,h]azulen-4-yl)ethan-1-ol [Example 57] | 260 | 
4-ethyl-5,11-dihydro-4H-3,4,10,11-tetraazadibenzo[cd,h]azulene [Example 46] | 49 | 1900
4-cyclobutyl-5,11-dihydro-4H-3,4,10,11-tetraazadibenzo[cd,h]azulene [Example 51] | 39 | 580
4-(sec-butyl)-5,11-dihydro-4H-3,4,10,11-tetraazadibenzo[cd,h]azulene [Example 50] | 120 | 
CC(C)N1CCC(N2Cc3ccccc3-c3n[nH]c4ccnc2c34)CC1 [Example 56] | 58 | 4800
CN1CCC(N2CCCc3n[nH]c4ccnc2c34)CC1 [Example 26, 6-(1-methylpiperidin-4-yl)-6,7,8,9-tetrahydro-2H-1,2,5,6-tetraazabenzo[cd]azulene] | 91 | 
4-isopropyl-4,11-dihydro-5H-3,4,10,11-tetraazadibenzo[cd,h]azulen-5-one [Example 35] | 75 | 
4-isopropyl-4,11-dihydro-5H-3,4,10,11-tetraazadibenzo[cd,h]azulen-5-one [Example 34] | 41 | 
4-isobutyl-5,11-dihydro-4H-3,4,10,11-tetraazadibenzo[cd,h]azulene [Example 49] | 67 | 
CCN1CCN(C2CCOCC2)c2nccc3[nH]nc1c23 [Example 94, 9-ethyl-6-(tetrahydro-2H-pyran-4-yl)-6,7,8,9-tetrahydro-2H-1,2,5,6,9-pentaazabenzo[cd]azulene] | 820 | 
O=C1c2n[nH]cc2-c2n[nH]c3ccnc(c23)N1C1CCOCC1 [Example 65, 9-(tetrahydro-2H-pyran-4-yl)-5,9-dihydro-1,2,4,5,8,9-hexaazabenzo[cd]cyclopenta[h]azulen-10(2H)-one] | 4 | 

Second part, the compound after the results:

IC50 (LRRK2 G2019S) [nM] | IC50 (JAK2) [nM] | Compound
29 | 3000 | CCn1cc2c(n1)CN(C1CCN(C(C)C)CC1)c1nccc3[nH]nc-2c13 [Example 86, 2-ethyl-9-(1-isopropylpiperidin-4-yl)-2,5,9,10-tetrahydro-1,2,4,5,8,9-hexaazabenzo[cd]cyclopenta[h]azulene]
40 | 4600 | CC(C)n1cc2c(n1)CN(C1CCN(C)CC1)c1nccc3[nH]nc-2c13 [Example 81, 2-isopropyl-9-(1-methylpiperidin-4-yl)-2,5,9,10-tetrahydro-1,2,4,5,8,9-hexaazabenzo[cd]cyclopenta[h]azulene]
71 | 2100 | CN1Cc2ccccc2-c2n[nH]c3ccnc1c23 [Example 45, 4-methyl-5,11-dihydro-4H-3,4,10,11-tetraazadibenzo[cd,h]azulene]
15 | 660 | CCn1cc2c(n1)CN(C1CCOCC1)c1nccc3[nH]nc-2c13 [Example 72, 2-ethyl-9-(tetrahydro-2H-pyran-4-yl)-2,5,9,10-tetrahydro-1,2,4,5,8,9-hexaazabenzo[cd]cyclopenta[h]azulene]
3000 |  | CN1CCCc2n[nH]c3ccnc1c23 [Example 16, 6-methyl-6,7,8,9-tetrahydro-2H-1,2,5,6-tetraazabenzo[cd]azulene]
23 |  | Cn1cc2c(n1)CN(C1CCOCC1)c1nccc3[nH]nc-2c13 [Example 70, 2-methyl-9-(tetrahydro-2H-pyran-4-yl)-2,5,9,10-tetrahydro-1,2,4,5,8,9-hexaazabenzo[cd]cyclopenta[h]azulene]
50 | 2400 | CC(C)n1cc2c(n1)CN(C1CCOCC1)c1nccc3[nH]nc-2c13 [Example 74, 2-isopropyl-9-(tetrahydro-2H-pyran-4-yl)-2,5,9,10-tetrahydro-1,2,4,5,8,9-hexaazabenzo[cd]cyclopenta[h]azulene]
450 |  | CC(C)CN1CCCc2n[nH]c3ccnc1c23 [Example 20, 6-isobutyl-6,7,8,9-tetrahydro-2H-1,2,5,6-tetraazabenzo[cd]azulene]
20 |  | 4-cyclobutyl-4,11-dihydro-5H-3,4,10,11-tetraazadibenzo[cd,h]azulen-5-one [Example 37]
26 |  | Cn1cc2c(n1)C(=O)N(C1CCOCC1)c1nccc3[nH]nc-2c13 [Example 66, 2-methyl-9-(tetrahydro-2H-pyran-4-yl)-5,9-dihydro-1,2,4,5,8,9-hexaazabenzo[cd]cyclopenta[h]azulen-10(2H)-one]
7 |  | Cn1ncc2c1C(=O)N(C1CCOCC1)c1nccc3[nH]nc-2c13 [Example 67, 1-methyl-9-(tetrahydro-2H-pyran-4-yl)-5,9-dihydro-1,2,4,5,8,9-hexaazabenzo[cd]cyclopenta[h]azulen-10(1H)-one]
